Reference: PubChem BioAssay (NCI)
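Assay format: 96-well plates, 48-hour exposure. TGI is the concentration that stops growth completely.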

How the values were obtained:
Experiment in all cases: inhibition of tumour cell growth, NCI panel, 48 h
LXFL 529 NSCLC = test system: LXFL 529 NSCLC
SK-MEL-28 melanoma = test system: SK-MEL-28 melanoma
SNB-75 CNS = test system: SNB-75 CNS
UACC-62 melanoma = test system: UACC-62 melanoma
NCI-H522 lung = test system: NCI-H522 lung
CCRF-CEM leukemia = test system: CCRF-CEM leukemia
HOP-92 NSCLC = test system: HOP-92 NSCLC
LOX IMVI melanoma = test system: LOX IMVI melanoma
NCI-H460 lung = test system: NCI-H460 lung
SR leukemia = test system: SR leukemia
SF-295 CNS = test system: SF-295 CNS
XF 498 CNS = test system: XF 498 CNS
OVCAR-3 ovarian = test system: OVCAR-3 ovarian
MOLT-4 leukemia = test system: MOLT-4 leukemia
KM12 colon = test system: KM12 colon
SK-MEL-2 melanoma = test system: SK-MEL-2 melanoma
A498 renal = test system: A498 renal
HT29 colon = test system: HT29 colon
U251 CNS = test system: U251 CNS
786-0 renal = test system: 786-0 renal
NCI-H226 lung = test system: NCI-H226 lung
ACHN renal = test system: ACHN renal
RXF-631 renal = test system: RXF-631 renal
SNB-19 CNS = test system: SNB-19 CNS
SF-539 CNS = test system: SF-539 CNS
HL-60(TB) leukemia = test system: HL-60(TB) leukemia
K-562 leukemia = test system: K-562 leukemia
SN12C renal = test system: SN12C renal
EKVX NSCLC = test system: EKVX NSCLC
SK-OV-3 ovarian = test system: SK-OV-3 ovarian
IGROV1 ovarian = test system: IGROV1 ovarian
RXF 393 renal = test system: RXF 393 renal
HCT-116 colon = test system: HCT-116 colon
OVCAR-5 ovarian = test system: OVCAR-5 ovarian
COLO 205 colon = test system: COLO 205 colon
HCT-15 colon = test system: HCT-15 colon
KM20L2 colon = test system: KM20L2 colon
HOP-62 NSCLC = test system: HOP-62 NSCLC
DMS 114 small cell lung = test system: DMS 114 small cell lung
M14 melanoma = test system: M14 melanoma
SW-620 colon = test system: SW-620 colon
DLD-1 colon = test system: DLD-1 colon
M19-MEL melanoma = test system: M19-MEL melanoma
UO-31 renal = test system: UO-31 renal
UACC-257 melanoma = test system: UACC-257 melanoma
SF-268 CNS = test system: SF-268 CNS
NCI-H23 lung = test system: NCI-H23 lung
OVCAR-8 ovarian = test system: OVCAR-8 ovarian
MALME-3M melanoma = test system: MALME-3M melanoma
HOP-18 NSCLC = test system: HOP-18 NSCLC
RPMI-8226 leukemia = test system: RPMI-8226 leukemia
SNB-78 CNS = test system: SNB-78 CNS
SK-MEL-5 melanoma = test system: SK-MEL-5 melanoma
HCC-2998 colon = test system: HCC-2998 colon
CAKI-1 renal = test system: CAKI-1 renal
OVCAR-4 ovarian = test system: OVCAR-4 ovarian
TK-10 renal = test system: TK-10 renal
A549 NSCLC = test system: A549 NSCLC
DMS 273 small cell lung = test system: DMS 273 small cell lung

Structure (SMILES): CC/C(SC)=[N+](\C)[O-]
- TGI (LXFL 529 NSCLC): > 100 µM
- TGI (SK-MEL-28 melanoma): > 100 µM
- TGI (SNB-75 CNS): > 100 µM
- TGI (UACC-62 melanoma): > 100 µM
- TGI (NCI-H522 lung): > 62.3 µM
- TGI (CCRF-CEM leukemia): 23.2 µM
- TGI (HOP-92 NSCLC): > 100 µM
- TGI (LOX IMVI melanoma): > 55.8 µM
- TGI (NCI-H460 lung): > 100 µM
- TGI (SR leukemia): 50 µM
- TGI (SF-295 CNS): > 100 µM
- TGI (XF 498 CNS): > 100 µM
- TGI (OVCAR-3 ovarian): > 100 µM
- TGI (MOLT-4 leukemia): 79.3 µM
- TGI (KM12 colon): > 100 µM
- TGI (SK-MEL-2 melanoma): > 100 µM
- TGI (A498 renal): > 100 µM
- TGI (HT29 colon): > 100 µM
- TGI (U251 CNS): > 100 µM
- TGI (786-0 renal): > 100 µM
- TGI (NCI-H226 lung): > 100 µM
- TGI (ACHN renal): > 100 µM
- TGI (RXF-631 renal): > 100 µM
- TGI (SNB-19 CNS): > 100 µM
- TGI (SF-539 CNS): > 100 µM
- TGI (HL-60(TB) leukemia): 25.2 µM
- TGI (K-562 leukemia): > 100 µM
- TGI (SN12C renal): > 100 µM
- TGI (EKVX NSCLC): > 100 µM
- TGI (SK-OV-3 ovarian): > 100 µM
- TGI (IGROV1 ovarian): > 100 µM
- TGI (RXF 393 renal): > 100 µM
- TGI (HCT-116 colon): > 68.4 µM
- TGI (OVCAR-5 ovarian): > 100 µM
- TGI (COLO 205 colon): > 66.9 µM
- TGI (HCT-15 colon): > 100 µM
- TGI (KM20L2 colon): > 100 µM
- TGI (HOP-62 NSCLC): > 100 µM
- TGI (DMS 114 small cell lung): > 54.2 µM
- TGI (M14 melanoma): > 100 µM
- TGI (SW-620 colon): > 100 µM
- TGI (DLD-1 colon): > 69 µM
- TGI (M19-MEL melanoma): > 100 µM
- TGI (UO-31 renal): > 100 µM
- TGI (UACC-257 melanoma): > 100 µM
- TGI (SF-268 CNS): > 100 µM
- TGI (NCI-H23 lung): > 100 µM
- TGI (OVCAR-8 ovarian): > 100 µM
- TGI (MALME-3M melanoma): > 100 µM
- TGI (HOP-18 NSCLC): > 100 µM
- TGI (RPMI-8226 leukemia): > 100 µM
- TGI (SNB-78 CNS): > 100 µM
- TGI (SK-MEL-5 melanoma): > 100 µM
- TGI (HCC-2998 colon): > 100 µM
- TGI (CAKI-1 renal): > 100 µM
- TGI (OVCAR-4 ovarian): > 100 µM
- TGI (TK-10 renal): > 100 µM
- TGI (A549 NSCLC): > 100 µM

Structure (SMILES): O=C(O)[C@@H](NS(=O)(=O)c1ccc([N+](=O)[O-])cc1)c1ccccc1
- TGI (LXFL 529 NSCLC): > 100 µM
- TGI (SK-MEL-28 melanoma): > 100 µM
- TGI (SNB-75 CNS): > 100 µM
- TGI (UACC-62 melanoma): > 100 µM
- TGI (NCI-H522 lung): > 100 µM
- TGI (CCRF-CEM leukemia): > 100 µM
- TGI (DMS 273 small cell lung): > 100 µM
- TGI (HOP-92 NSCLC): > 100 µM
- TGI (LOX IMVI melanoma): > 100 µM
- TGI (NCI-H460 lung): > 100 µM
- TGI (SF-295 CNS): > 100 µM
- TGI (XF 498 CNS): > 100 µM
- TGI (OVCAR-3 ovarian): > 100 µM
- TGI (MOLT-4 leukemia): > 100 µM
- TGI (KM12 colon): > 100 µM
- TGI (SK-MEL-2 melanoma): > 100 µM
- TGI (A498 renal): > 100 µM
- TGI (HT29 colon): > 100 µM
- TGI (U251 CNS): > 100 µM
- TGI (786-0 renal): > 100 µM
- TGI (NCI-H226 lung): > 100 µM
- TGI (ACHN renal): > 100 µM
- TGI (RXF-631 renal): > 100 µM
- TGI (SNB-19 CNS): > 100 µM
- TGI (SF-539 CNS): > 100 µM
- TGI (HL-60(TB) leukemia): > 100 µM
- TGI (K-562 leukemia): > 100 µM
- TGI (SN12C renal): > 100 µM
- TGI (EKVX NSCLC): > 100 µM
- TGI (SK-OV-3 ovarian): > 100 µM
- TGI (IGROV1 ovarian): > 100 µM
- TGI (RXF 393 renal): > 100 µM
- TGI (OVCAR-5 ovarian): > 100 µM
- TGI (COLO 205 colon): > 100 µM
- TGI (HCT-15 colon): > 100 µM
- TGI (KM20L2 colon): > 100 µM
- TGI (M14 melanoma): > 100 µM
- TGI (SW-620 colon): > 100 µM
- TGI (DLD-1 colon): > 100 µM
- TGI (M19-MEL melanoma): > 100 µM
- TGI (UO-31 renal): > 100 µM
- TGI (UACC-257 melanoma): > 100 µM
- TGI (SF-268 CNS): > 100 µM
- TGI (NCI-H23 lung): > 100 µM
- TGI (OVCAR-8 ovarian): > 100 µM
- TGI (MALME-3M melanoma): > 100 µM
- TGI (HOP-18 NSCLC): > 100 µM
- TGI (RPMI-8226 leukemia): > 100 µM
- TGI (SK-MEL-5 melanoma): > 100 µM
- TGI (HCC-2998 colon): > 100 µM
- TGI (CAKI-1 renal): > 100 µM
- TGI (OVCAR-4 ovarian): > 100 µM
- TGI (TK-10 renal): > 100 µM
- TGI (A549 NSCLC): > 100 µM

Structure (SMILES): COc1ccccc1NC(=O)C(CC(C(=O)Nc1ccccc1OC)/C(C)=N/NC(=O)c1ccccc1O)/C(C)=N/NC(=O)c1ccccc1O (stereo unspecified)
- TGI (LXFL 529 NSCLC): > 100 µM
- TGI (SK-MEL-28 melanoma): > 100 µM
- TGI (SNB-75 CNS): > 100 µM
- TGI (NCI-H522 lung): > 100 µM
- TGI (CCRF-CEM leukemia): > 100 µM
- TGI (DMS 273 small cell lung): > 100 µM
- TGI (HOP-92 NSCLC): > 100 µM
- TGI (LOX IMVI melanoma): > 100 µM
- TGI (NCI-H460 lung): > 100 µM
- TGI (SF-295 CNS): > 100 µM
- TGI (XF 498 CNS): > 100 µM
- TGI (OVCAR-3 ovarian): > 100 µM
- TGI (MOLT-4 leukemia): > 100 µM
- TGI (KM12 colon): > 100 µM
- TGI (SK-MEL-2 melanoma): > 100 µM
- TGI (A498 renal): > 100 µM
- TGI (HT29 colon): > 100 µM
- TGI (U251 CNS): > 100 µM
- TGI (786-0 renal): > 100 µM
- TGI (NCI-H226 lung): > 100 µM
- TGI (ACHN renal): > 100 µM
- TGI (RXF-631 renal): > 100 µM
- TGI (SNB-19 CNS): > 100 µM
- TGI (SF-539 CNS): > 100 µM
- TGI (HL-60(TB) leukemia): > 100 µM
- TGI (K-562 leukemia): > 100 µM
- TGI (SN12C renal): > 100 µM
- TGI (EKVX NSCLC): > 100 µM
- TGI (SK-OV-3 ovarian): > 100 µM
- TGI (IGROV1 ovarian): > 100 µM
- TGI (RXF 393 renal): > 100 µM
- TGI (OVCAR-5 ovarian): > 100 µM
- TGI (COLO 205 colon): > 100 µM
- TGI (KM20L2 colon): > 100 µM
- TGI (HOP-62 NSCLC): > 100 µM
- TGI (DMS 114 small cell lung): > 100 µM
- TGI (M14 melanoma): > 100 µM
- TGI (SW-620 colon): > 100 µM
- TGI (DLD-1 colon): > 100 µM
- TGI (M19-MEL melanoma): > 100 µM
- TGI (UO-31 renal): > 100 µM
- TGI (UACC-257 melanoma): > 100 µM
- TGI (SF-268 CNS): > 100 µM
- TGI (NCI-H23 lung): > 100 µM
- TGI (OVCAR-8 ovarian): > 100 µM
- TGI (MALME-3M melanoma): > 100 µM
- TGI (RPMI-8226 leukemia): > 100 µM
- TGI (SNB-78 CNS): > 100 µM
- TGI (SK-MEL-5 melanoma): > 100 µM
- TGI (HCC-2998 colon): > 100 µM
- TGI (CAKI-1 renal): > 100 µM
- TGI (OVCAR-4 ovarian): > 100 µM
- TGI (TK-10 renal): > 100 µM
- TGI (A549 NSCLC): > 100 µM
